Experimental data from US12350259B2, “Methods of treating migraine” (Allergan Pharmaceuticals International Limited, priority 2021, dated 2025).
Read-outs that look alike come from different tables or passages of the source.

Columns and labels:
OAT1 = OAT1 (Homo sapiens, UniProt Q4U2R8); assay: Transporter substrate; assay type: in vitro ADME
[1] = Food effect study: safety and tolerability; assay type: in vivo, human; details: fed and fasted
Method: Plasma samples were collected pre-dose and at predetermined time intervals up to 48 hours after dosing. Atogepant plasma concentrations were determined using a validated LC-MS/MS assay and the pharmacokinetic (PK) parameters were calculated using WinNonlin. A linear mixed-effects model with sequence, study intervention, and period as fixed effects, and participant nested within sequence as a random effect was used to compare the natural logarithm transformed values of atogepant PK parameters AUC0-t, AUC0-inf, and Cmax. Safety was monitored via ECGs, vital signs, clinical labs, and adverse events.

[2] = Hepatic impairment study: atogepant plasma PK; assay type: in vivo, human; details: for AUC(0-t) / AUC(0-inf) / Cmax / Tmax / half-life / Vd/F: human, plasma, 60 mg; for Vd/F: read-out: Vz/F
Method: A multicenter, non-randomized, open-label, parallel-group, single-dose study was carried out to evaluate the PK, safety, and tolerability profiles of atogepant in participants with impaired hepatic function and matched healthy participants with normal hepatic function after a single 60-mg oral dose of atogepant. The primary outcome measures were PK parameters of atogepant derived from plasma concentrations. Safety measures were AEs, clinical laboratory determinations, vital sign parameters, electrocardiographic results, and physical examination findings. […] PK blood samples were collected for up to 72 hours after dose administration. The total duration of study participation for each participant was 5 days (Day −1 to Day 4), excluding the screening visit. […] Participants with moderate hepatic impairment were enrolled after 4 participants with mild hepatic impairment completed the study; participants with severe hepatic impairment were enrolled after 4 participants with moderate hepatic impairment completed the study. Participants with normal hepatic function were recruited after all patients with hepatic impairment were enrolled in the study. The safety and tolerability of atogepant was established in each group before the subsequent group was enrolled. Participants were enrolled into four groups: Group I (Mild Hepatic Impairment); Group II (Moderate Hepatic Impairment); Group III (Severe Hepatic Impairment); and Group IV (Normal Hepatic Impairment). Participants with normal hepatic function were recruited after the participants with hepatic impairment were enrolled in the study so that participants could be matched as closely as possible by age range, weight range, and gender among groups. Participants were matched specifically according to rage range, not exceeding 5 years between the means of the normal group and the 3 impaired hepatic function groups combined; weight range, which deviated <20% between the means of the normal group and the 3 impaired hepatic function groups combined; and gender, as much as possible to match the ratio of the normal group to the 3 impaired hepatic function groups combined. Participants received a single, oral, 60 mg tablet of atogepant. Each participant received only one dose of the study intervention. Participants received the atogepant tablet with 240 mL of water at the study center under fasted conditions. Following dose administration, participants continued their fast and remained seated upright and awake for 4 hours. Sampling for atogepant plasma concentrations was done starting on Day 1 at 0 hour (predose) and at 0.5, 1, 1.5, 2, 3, 4, 6, 8, 12, 16, 24, 36, 48, and 72 hours post dose.

[3] = po, mild hepatic impairment, single 60 mg oral dose
[4] = po, moderate hepatic impairment, single 60 mg oral dose
[5] = po, normal hepatic function, single 60 mg oral dose
[6] = po, severe hepatic impairment, single 60 mg oral dose
[7] = mild hepatic impairment vs normal hepatic function
[8] = mild hepatic impairment, single 60 mg oral dose
[9] = moderate hepatic impairment vs normal hepatic function
[10] = moderate hepatic impairment, single 60 mg oral dose
[11] = normal hepatic function, single 60 mg oral dose
[12] = severe hepatic impairment vs normal hepatic function
[13] = severe hepatic impairment, single 60 mg oral dose

Chain of OAT1 (Q4U2R8 whole entry): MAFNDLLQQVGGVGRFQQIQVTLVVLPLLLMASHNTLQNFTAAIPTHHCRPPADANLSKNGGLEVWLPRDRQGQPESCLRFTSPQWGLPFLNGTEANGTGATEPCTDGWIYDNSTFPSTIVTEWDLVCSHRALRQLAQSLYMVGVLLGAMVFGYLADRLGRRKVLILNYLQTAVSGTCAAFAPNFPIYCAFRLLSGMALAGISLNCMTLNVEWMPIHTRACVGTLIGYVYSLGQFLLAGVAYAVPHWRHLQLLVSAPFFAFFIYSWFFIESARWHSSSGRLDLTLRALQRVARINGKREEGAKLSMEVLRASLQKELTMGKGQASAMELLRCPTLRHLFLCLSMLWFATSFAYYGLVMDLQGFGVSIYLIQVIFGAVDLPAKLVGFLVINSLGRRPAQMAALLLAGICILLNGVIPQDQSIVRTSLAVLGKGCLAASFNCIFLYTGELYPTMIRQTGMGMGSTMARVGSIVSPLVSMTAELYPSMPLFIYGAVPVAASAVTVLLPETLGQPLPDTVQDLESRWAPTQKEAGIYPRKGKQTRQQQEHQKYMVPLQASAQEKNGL

For `C[C@@H]1[C@H](c2c(F)ccc(F)c2F)C[C@H](NC(=O)c2cnc3c(c2)C[C@@]2(C3)C(=O)Nc3ncccc32)C(=O)N1CC(F)(F)F` [atogepant, (3′S)-N-[(3S,5S,6R)-6-methyl-2-oxo-1-(2,2,2-trifluoroethyl)-5-(2,3,6-trifluorophenyl)piperidin-3-yl]-2′-oxo-1′,2′,5,7-tetrahydrospiro[cyclopenta[b]pyridine-6,3′-pyrrolo[2,3-b]pyridine]-3-carboxamide], the “substrate of OAT1” value (OAT1) was “substrate”, the “participants with TEAEs considered related to study intervention” value ([1]; overall) was 15% and the participants with arthralgia ([1]; overall) was 10.0%. The “participants with back pain” value ([1]; overall) was 10.0%, the “participants with treatment emergent AEs (TEAEs)” value ([1]; overall) was 35.0% and the safety and tolerability ([1]; single doses of 60-mg IR formulation) was “safe and well-tolerated”. It also gave an AUC(0-t) ([2]; oral, mild hepatic impairment, read-out: AUC0-t Geometric Least Squares Mean, Test) of 3250 ng·h/mL, an AUC(0-inf) ([2]; oral, mild hepatic impairment, read-out: AUC0-∞ Geometric Least Squares Mean, Test) of 3270 ng·h/mL and a Cmax ([2]; oral, mild hepatic impairment, read-out: Cmax Geometric Least Squares Mean, Test) of 587 ng/mL. It also gave an AUC(0-t) ([2]; oral, moderate hepatic impairment, read-out: AUC0-t Geometric Least Squares Mean, Test) of 2980 ng·h/mL, an AUC(0-inf) ([2]; oral, moderate hepatic impairment, read-out: AUC0-∞ Geometric Least Squares Mean, Test) of 3030 ng·h/mL and a Cmax ([2]; oral, moderate hepatic impairment, read-out: Cmax Geometric Least Squares Mean, Test) of 475 ng/mL. For the same molecule, the AUC(0-t) ([2]; oral, normal hepatic function, read-out: AUC0-t Geometric Least Squares Mean, Reference) was 2610 ng·h/mL, the AUC(0-inf) ([2]; oral, normal hepatic function, read-out: AUC0-∞ Geometric Least Squares Mean, Reference) was 2630 ng·h/mL and the Cmax ([2]; oral, normal hepatic function, read-out: Cmax Geometric Least Squares Mean, Reference) was 539 ng/mL. It also gave an AUC(0-t) ([2]; oral, severe hepatic impairment, read-out: AUC0-t Geometric Least Squares Mean, Test) of 3600 ng·h/mL, an AUC(0-inf) ([2]; oral, severe hepatic impairment, read-out: AUC0-∞ Geometric Least Squares Mean, Test) of 3630 ng·h/mL and a Cmax ([2]; oral, severe hepatic impairment, read-out: Cmax Geometric Least Squares Mean, Test) of 515 ng/mL. It also gave a Tmax ([2]; po, mild hepatic impairment vs normal hepatic function, read-out: difference in median Tmax) of 0 h, a half-life [2, 3] of 8.7 ± 4.06 h and an AUC(0-t) ([2]; po, mild hepatic impairment, single 60 mg oral dose, read-out: AUC0-t) of 3470 ± 1420 ng·h/mL. It also gave an AUC(0-inf) ([2]; po, mild hepatic impairment, single 60 mg oral dose, read-out: AUC0-∞) of 3500 ± 1430 ng·h/mL, a Cmax ([2]; po, mild hepatic impairment, single 60 mg oral dose, read-out: Cmax) of 666 ± 372 ng/mL and a Tmax ([2]; po, mild hepatic impairment, single 60 mg oral dose, read-out: Tmax, median (range)) of 1.76 h. For the same molecule, the Vd/F [2, 3] was 249 ± 161 L, the Tmax ([2]; po, moderate hepatic impairment vs normal hepatic function, read-out: difference in median Tmax) was 0.25 h and the half-life [2, 4] was 11.9 ± 7.6 h. For the same molecule, the AUC(0-t) ([2]; po, moderate hepatic impairment, single 60 mg oral dose, read-out: AUC0-t) was 3270 ± 1690 ng·h/mL, the AUC(0-inf) ([2]; po, moderate hepatic impairment, single 60 mg oral dose, read-out: AUC0-∞) was 3310 ± 1680 ng·h/mL and the Cmax ([2]; po, moderate hepatic impairment, single 60 mg oral dose, read-out: Cmax) was 529 ± 227 ng/mL. For the same molecule, the Tmax ([2]; po, moderate hepatic impairment, single 60 mg oral dose, read-out: Tmax, median (range)) was 1.5 h, the Vd/F [2, 4] was 404 ± 406 L and the half-life [2, 5] was 9.4 ± 3.24 h. It also gave an AUC(0-t) ([2]; po, normal hepatic function, single 60 mg oral dose, read-out: AUC0-t) of 2760 ± 919 ng·h/mL, an AUC(0-inf) ([2]; po, normal hepatic function, single 60 mg oral dose, read-out: AUC0-∞) of 2780 ± 924 ng·h/mL and a Cmax ([2]; po, normal hepatic function, single 60 mg oral dose, read-out: Cmax) of 589 ± 248 ng/mL. For the same molecule, the Tmax ([2]; po, normal hepatic function, single 60 mg oral dose, read-out: Tmax, median (range)) was 1.75 h, the Vd/F [2, 5] was 301 ± 77 L and the Tmax ([2]; po, severe hepatic impairment vs normal hepatic function, read-out: difference in median Tmax) was 0.75 h. The half-life [2, 6] was 7.54 ± 2.95 h, the AUC(0-t) ([2]; po, severe hepatic impairment, single 60 mg oral dose, read-out: AUC0-t) was 3800 ± 1400 ng·h/mL and the AUC(0-inf) ([2]; po, severe hepatic impairment, single 60 mg oral dose, read-out: AUC0-∞) was 3840 ± 1440 ng·h/mL. For the same molecule, the Cmax ([2]; po, severe hepatic impairment, single 60 mg oral dose, read-out: Cmax) was 525 ± 197 ng/mL, the Tmax ([2]; po, severe hepatic impairment, single 60 mg oral dose, read-out: Tmax, median (range)) was 1 h and the Vd/F [2, 6] was 177 ± 47.5 L. The “higher AUC (total atogepant exposure increase)” value ([2]; mild hepatic impairment (Child-Pugh Class A) vs normal hepatic function) was 24%, the “AUC0-t Ratio of Geometric Means Test/Reference” value [2, 7] was 124.40 and the “AUC0-∞ Ratio of Geometric Means Test/Reference” value [2, 7] was 124.31. For the same molecule, the “Cmax Ratio of Geometric Means Test/Reference” value [2, 7] was 108.97, the “change in maximum plasma concentration” value [2, 7] was “+9%” and the “higher Cmax” value [2, 7] was 9%. The AUC % [2, 8] was 0.73 ± 0.42%, the CL/F [2, 8] was 19.42 ± 6.60 L/h and the λz [2, 8] was 0.0906 ± 0.0300 h⁻¹. The “change in the PK of atogepant” value ([2]; mild, moderate, or severe hepatic impairment) was “no clinically relevant change”, the “higher AUC (total atogepant exposure increase)” value ([2]; moderate hepatic impairment (Child-Pugh Class B) vs normal hepatic function) was 15% and the “AUC0-t Ratio of Geometric Means Test/Reference” value [2, 9] was 113.96. The “AUC0-∞ Ratio of Geometric Means Test/Reference” value [2, 9] was 115.00, the “Cmax Ratio of Geometric Means Test/Reference” value [2, 9] was 88.17 and the “change in maximum plasma concentration” value [2, 9] was −12%. The “lower Cmax” value [2, 9] was 12%, the AUC % [2, 10] was 1.70 ± 1.44% and the CL/F [2, 10] was 21.33 ± 8.06 L/h. The λz [2, 10] was 0.0781 ± 0.0431 h⁻¹, the AUC % [2, 11] was 0.81 ± 0.23% and the CL/F [2, 11] was 24.20 ± 9.42 L/h. The λz [2, 11] was 0.0819 ± 0.0289 h⁻¹, the “increase in AUC (total atogepant exposure increase)” value ([2]; severe hepatic impairment (Child-Pugh Class C) vs normal hepatic function) was 38% and the “AUC0-t Ratio of Geometric Means Test/Reference” value [2, 12] was 137.88. For the same molecule, the “AUC0-∞ Ratio of Geometric Means Test/Reference” value [2, 12] was 137.97, the “Cmax Ratio of Geometric Means Test/Reference” value [2, 12] was 95.71 and the “change in maximum plasma concentration” value [2, 12] was −4%. The “decrease in Cmax” value [2, 12] was 4%, the AUC % [2, 13] was 0.87 ± 0.65% and the CL/F [2, 13] was 17.33 ± 5.40 L/h. It also gave a λz [2, 13] of 0.0998 ± 0.0242 h⁻¹.
